The values below come from patent US8088806B2 (Achillion Pharmaceuticals, Inc., priority 2005, dated 2012).

Where only a bound is given, the exact number is not on record here.

One assay concerns HCV replicon. The assay can be described thus: Replicon based assay of HCV replication inhibition (NPT ELISA). Type of assay: cell-based, Hepatitis C virus. Particulars: Hepatitis C virus, Huh-7, 72 h, Table I; Huh-7 HCV replicon-containing cells, three days; read-out: Activity. Put shortly:
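Huh-7 cells carrying a bicistronic HCV replicon (neo, EMCV-IRES-driven NS3–NS5B) treated overnight after seeding with usually 6 concentrations, 10 to 0.03 micromolar, for three days at 37° C without G418. Replication read as NPT level by captured ELISA; matched-DMSO wells and interferon alpha as controls.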
As to `CCCCCOc1ccc(Nc2nc(-c3ccc(F)cc3)cs2)cc1C(F)(F)F` [compound 2, N-(3-(trifluoromethyl)-4-(pentyloxy)phenyl)-4-(4-fluorophenyl)thiazol-2-amine], the EC50 is less than 1000 nM.
Take `CCCCCOc1ccc(Nc2nc(C(=O)NCc3ccc(S(N)(=O)=O)cc3)cs2)cc1C(F)(F)F` [compound 153, 2-(4-(pentyloxy)-3-(trifluorornethyl)phenylamino)-N-(4-aminosulfonylbenzyl)thiazole-4-carboxamide]: the EC50 lay in the range of 1000 to 10000 nM.
Still for that read-out and setting: as for `CCCCCOc1ccc(Nc2ncc(C(=O)NCc3ccc(S(N)(=O)=O)cc3)s2)cc1C(F)(F)F` [compound 151, N-(4-aminosulfonyl-benzyl)-2-(4-(pentyloxy)-3-(trifluoromethyl)phenylamino)-thiazole-5-carboxamide], the figure is more than 10000 nM; as for `CCCCCOc1ccc(Nc2csc(-c3cccnc3)n2)cc1C(F)(F)F` [compound 13, N-(3-(trifluoromethyl)-4-(pentyloxy)phenyl)-2-(pyridin-3-yl)thiazol-4-amine], more than 10000 nM.
`CCCCCOc1ccc(Nc2nc(C(Cc3ccccc3)NS(=O)(=O)c3ccc(C)cc3)cs2)cc1C(F)(F)F` (stereo not drawn) [compound 6, N-(3-(trifluoromethyl)-4-(pentyloxy)phenyl)-4-(2-phenyl-1-(tosylamino)ethyl)thiazol-2-amine]: the EC50 was in the range of 1000 to 10000 nM.
Consider `CCCCCOc1ccc(N(C)c2nc(C(=O)Nc3ccc(C#N)cc3)cs2)cc1C(F)(F)F` [compound 160, 2-(N-(3-(trifluoromethyl)-4-(pentyloxy)phenyl)-N-methylamino)-N-(4-cyanophenyl)thiazole-4-carboxamide], for which the EC50 was more than 10000 nM.

Still in this assay, the particulars now being: Hepatitis C virus, Huh-7, 72 h, Table III; Huh-7 HCV replicon-containing cells, three days; read-out: Activity.
On to `O=C1OCc2cc(-c3csc(Nc4ccc(OCC5CCCCC5)c(F)c4)n3)ccc21` [compound 718, 5-(2-(4-(cyclohexylmethoxy)-3-fluorophenylamino)thiazol-4-yl)isobenzofuran-1(3H)-one], for which the EC50 lay in the range of 1000 to 10000 nM.
For `FC(F)(F)c1cc(Nc2nccs2)ccc1OCCCC1CCCC1` [compound 622, N-(4-(3-cyclopentylpropoxy)-3-(trifluoromethyl)phenyl)thiazol 2-amine], the EC50 is less than 1000 nM.
The same measure, in the same setting: as for `CCCCCCCCOc1ccc(Nc2nc(-c3cncc(C#N)c3)cs2)cc1` [compound 655, 5-(2-(4-(octyloxy)phenylamino)thiazol-4-yl)pyridine-3-carbonitrile], the figure is less than 1000 nM.
Turning to `CCCCCCCCc1ccc(Nc2nc(-c3ccc(-c4ccccn4)s3)cs2)cc1` [compound 552, N-(4-octylphenyl)-4-(5-(pyridin-2-yl)thiophen-2-yl)thiazol-2-amine], the EC50 is less than 1000 nM.
In the case of `CCCCCCCCOC(=O)c1ccc(Nc2nc(-c3cccnc3)cs2)cc1C(F)(F)F` [compound 697, octyl 4-(4-(pyridin-3-yl)thiazol-2-ylamino)-2-(trifluoromethyl)benzoate], the EC50 was less than 1000 nM.
On the same count and under the same terms, as for `CCCCCCCCc1ccc(Nc2nc(-c3ccc(F)cc3)cs2)cc1` [compound 544, 4-(4-fluorophenyl)-N-(4-octylphenyl)thiazol-2-amine], the figure is less than 1000 nM.
Same read-out and setting: as for `CCCCCCCc1ccc(Nc2nc(-c3ccc4[nH]c(=O)oc4c3)cs2)cc1` [compound 561], the figure is less than 1000 nM.
On the same count and under the same terms, as for `CCCCCCCCOc1ccc(Nc2nc(-c3cnc(Cl)nc3)cs2)cc1C(F)(F)F` [compound 620, 4-(2-chloropyrimidin-5-yl)-N-(3-(trifluoromethyl)-4-(octyloxy)phenyl)thiazol-2-amine], the figure is less than 1000 nM; as for `CCCCCCCCOc1ccc(Nc2nc(Cc3ccc(OC)cc3)cs2)cc1C(F)(F)F` [compound 641, 4-(4-methoxybenzyl)-N-(3-(trifluoromethyl)-4-(octyloxy)phenyl)thiazol-2-amine], less than 1000 nM; as for `CCCCCCCCc1ccc(Nc2nc(-c3sc(-c4cnccn4)nc3C)cs2)cc1` [compound 554, 4-(4-methyl-2-(pyrazin-2-yl)thiazol-5-yl)-N-(4-octylphenyl)thiazol-2-amine], less than 1000 nM.

The same assay, now with this note: Hepatitis C virus, replicon based assay of HCV replication inhibition; Table II; read-out: Activity.
Consider `CCCCCOc1ccc(Nc2nc(-c3csc(N)n3)cs2)cc1C(F)(F)F` [compound 262, 4-(2-aminothiazol-4-yl)-N-(4-(pentyloxy)-3-(trifluoromethyl)phenyl)thia-zol-2-amine], for which the EC50 is less than 1000 nM.
The same measure, in the same setting: as for `CCCCCCCCOc1ccc(Nc2nc(CN3CCC(N(C)C(=O)OC(C)(C)C)C3)cs2)cc1` (stereo not drawn) [compound 309, tert-butyl methyl(1-((2-(4-(octyloxy)phenylamino)thia-zol-4-yl)methyl)pyrrolidin-3-yl)carbamate], the figure is 1000 to 10000 nM.
Consider `CCCCCCCOc1ccc(Nc2nc(-c3cccs3)cs2)cc1` [compound 359, N-(4-(heptyloxy)phenyl)-4-(thiophen-2-yl)thiazol-2-amine], for which the EC50 was less than 1000 nM.
With `CCCCCOc1ccc(Nc2nc(-c3cc4ccccc4o3)cs2)cc1C(F)(F)F` [compound 413, 4-(benzofuran-2-yl)-N-(3-(trifluoromethyl)-4-(pentyloxy)phenyl)thiazol-2-amine], the EC50 is less than 1000 nM.
Still for that read-out and setting: as for `CCCCCOc1ccc(Nc2nc(CN3CCN(C(=O)OC(C)(C)C)CC3)cs2)cc1C(F)(F)F` [compound 265, tert-butyl 4-((2-(4-(pentyloxy)-3-(trifluoromethyl)phenyl-amino)thiazol-4-yl)methyl)piperazine-1-carboxylate], the figure is less than 1000 nM.
The same measure, in the same setting: as for `CN(CCCCCCO)c1ccc(Nc2nc(-c3ccc(F)cc3)cs2)cc1C(F)(F)F` [compound 470, 6-(N-(4-(4-(4-fluorophenyl)thiazol-2-ylamino)-2-(trifluoromethyl)phenyl)-N-methylamino)hexan-1-ol], the figure is 1000 to 10000 nM.
In the case of `CCCCCCCOc1ccc(Nc2nc(-c3ccccc3)c(-c3ccccc3)s2)cc1` [compound 352, N-(4-(heptyloxy)phenyl)-4,5-diphenylthiazol-2-amine], the EC50 was more than 10000 nM.
As to `CCCCCCCCOc1ccc(Nc2nc(Cc3ccccc3)cs2)cn1` [compound 491, N-(4-benzylthiazol-2-yl)-6-(octyloxy)pyridin-3-amine], the EC50 was 1000 to 10000 nM.
`CCCCCCCCOc1ccc(Nc2nc(-c3csc(-c4ccccc4)n3)cs2)cc1` [compound 332, N-(4-(octyloxy)phenyl)-4-(2-phenylthiazol-4-yl)thiazol-2-amine]: the EC50 is 1000 to 10000 nM.
Take `CCCCCOc1ccc(Nc2nc(CN3CCCCC3)cs2)cc1C(F)(F)F` [compound 230, N-(4-(pentyloxy)-3-(trifluoromethyl)phenyl)-4-(piperidin-1-ylmethyl)thiazol-2-amine]: the EC50 was in the range of 1000 to 10000 nM.
On to `Cc1sc(Nc2cccc(C(F)(F)F)c2)nc1-c1ccc(OCC(=O)O)cc1` [compound 338, 2-(4-(5-methyl-2-(3-(trifluoromthyl)phenylamino)thiazol-4-yl)phenoxy)acetic acid], for which the EC50 was more than 10000 nM.
On the same count and under the same terms, as for `COc1ccc(-c2nc(Nc3cccc(C(F)(F)F)c3)sc2-c2ccc(OC)cc2)cc1` [compound 333, 4,5-bis(4-methoxyphenyl)-N-(3-(trifluoromethyl)phenyl)thia-zol-2-amine], the figure is 1000 to 10000 nM.
Still for that read-out and setting: as for `CCCCCCCCOc1ccc(Nc2nc(-c3c(C)cc(C)nc3C)cs2)cc1` [compound 447, 4-(2,4,6-trimethylpyridin-3-yl)-N-(4-(octyloxy)phenyl)thiazol-2-amine], the figure is more than 10000 nM.

Staying with this assay, now noted: Hepatitis C virus, replicon based assay of HCV replication inhibition; Table IV; read-out: Activity.
As for `COc1ncc(-c2csc(Nc3ccc4c(ccn4Cc4ccc(F)cc4)c3)n2)cn1` [compound 919, 1-(4-fluorobenzyl)-N-(4-(2-methoxypyrimidin-5-yl)thiazol-2-yl)-1H-indol-5-amine], the EC50 is 1000 to 10000 nM.
The same measure, in the same setting: as for `CN1Cc2c(Nc3nc(-c4cccnc4)cs3)cccc2C(c2ccccc2)C1` (stereo not drawn) [compound 743, 1,2,3,4-tetrahydro-2-methyl-4-phenyl-N-(4-(pyridin-3-yl)thiazol-2-yl)isoquinolin-8-amine], the figure is more than 10000 nM; as for `CCN(CCOc1ccc(Nc2nc(-c3cccnc3)cs2)cc1C(F)(F)F)c1ccccc1` [compound 847], less than 1000 nM.
The same measure, in the same setting: as for `CC(C)(C)c1cccc(Nc2nc(-c3cccnc3)cs2)c1` [compound 893, N-(3-tert-butylphenyl)-4-(pyridin-3-yl)thiazol-2-amine], the figure is more than 10000 nM; as for `Fc1cc(Nc2nc(-c3cccc4nsnc34)cs2)ccc1OCC1CCCCC1` [compound 722, 4-(benzo[c][1,2,5]thiadiazol-4-yl)-N-(4-(cyclohexylmethoxy)-3-fluorophenyl)thiazol-2-amine], 1000 to 10000 nM.
Still for that read-out and setting: as for `Cc1sc(Nc2ccc(OCCCCc3cccs3)c(F)c2)nc1-c1cccnc1` [compound 854, N-(4-(4-(thiophen-2-yl)butoxy)-3-fluorophenyl)-5-methyl-4-(pyridin-3-yl)thiazol-2-amine], the figure is 1000 to 10000 nM; as for `CCCCCCC#Cc1ccc(Nc2nc(-c3cnc(OC)nc3)cs2)cc1C(F)(F)F` [compound 780, N-(3-(trifluoromethyl)-4-(oct-1-ynyl)phenyl)-4-(2-methoxypyrimidin-5-yl)thiazol-2-amine], less than 1000 nM.
As to `Fc1cc(Nc2nc(-c3cccnc3)cs2)ccc1OCCCc1ccccc1` [compound 853, N-(4-(3-phenylpropoxy)-3-fluorophenyl)-4-(pyridin-3-yl)thiazol-2-amine], the EC50 is less than 1000 nM.
On the same count and under the same terms, as for `CCCCCCCCOc1ccc(Nc2nc(-c3cccnc3C(N)=O)cs2)cc1C(F)(F)F` [compound 814, 3-(2-(3-(trifluoromethyl)-4-(octyloxy)phenylamino)thiazol-4-yl)pyridine-2-carboxamide], the figure is 1000 to 10000 nM.

Still in this assay, the particulars now being: replicon based assay of HCV replication inhibition; Table II; read-out: Activity.
Take `CCCCCCCCOc1ccc(Nc2nc(-c3cccnc3)cs2)cn1` [compound 472, 6-(octyloxy)-N-(4-(pyridin-3-yl)thiazol-2-yl)pyridin-3-amine]: the EC50 was less than 1000 nM.
